Literature values as cited in patent US20220054467A1, “TREATMENT OF PSORIASIS WITH TOPICAL TAPINAROF-TAZAROTENE COMBINATION COMPOSITIONS” (Sol-Gel Technologies Ltd., priority 2019, published 2022).
Where two headings read alike, the source gives them in different places.

Tests used:
[1] = as a single drug; placebo 20.2%
[2] = system: interleukin-6 and interleukin-17A; conditions: mouse models
[3] = system: interleukin-6 and interleukin-17A; conditions: in vitro human skin
[4] = 1% tapinarof arm vs. the 0.5% arm or vehicle

SMILES | adverse effects [1] [%] | efficacy (plaque psoriasis; [4]) | onset of action (plaque psoriasis; [4]) | most frequent adverse events (plaque psoriasis; topical cream, clinical studies) | effect on proinflammatory mediators, including interleukin-6 and interleukin-17A [2] | effect on skin barrier function [2] | effect on proinflammatory mediators, including interleukin-6 and interleukin-17A [3] | effect on skin barrier function [3]
C=C1/C(=C\C=C2/CCC[C@]3(C)[C@@H]([C@H](C)/C=C/[C@@H](O)C4CC4)CC[C@@H]23)C[C@@H](O)C[C@@H]1O [calcipotriene] | 19.5 | – | – | – | – | – | – | –
CC(C)c1c(O)cc(/C=C/c2ccccc2)cc1O [Tapinarof, 3,5-dihydroxy-4-isopropyl-trans-stilbene] | 44.5 | higher efficacy | quicker onset of action | folliculitis and contact dermatitis | inhibit specific proinflammatory mediators | enhance skin barrier function | inhibit specific proinflammatory mediators | enhance skin barrier function
